Assay results: patent US20260137701A1, “CHOLESTENOIC ACID (CA) AND A SULFATED DERIVATIVE THEREOF, 3[BETA]-SULFATE-5-CHOLESTENOIC ACID (CA3S), AS ENDOGENOUS EPIGENETIC REGULATORS” (priority 2022, published 2026)

How the values were obtained:
recombinant DNMT3a = recombinant DNMT3a (Homo sapiens, UniProt Q9Y6K1); experiment: DNMT3a enzyme kinetic (activity) assay, 3H-SAM filter; format: biochemical; conditions: read-out: IC50, inhibits DNMT3a activity
Description: The enzyme kinetic studies were carried out by Reaction Biology Company. For the DNMT1 activity assay, the substrate solution, 0.001 mg/ml Poly(dI-dC): Poly(dI-dC) in 50 mM Tris-HCl, pH 7.5, 50 mM NaCl, 5 mM EDTA, 5 mM DTT, 1 mM PMSF, 5% glycerol, 0.01% Brij™35, 1% DMSO was used. For the DNMT3a/3b activity assay, 0.0075 mg/ml Lambda DNA in 50 mM Tris-HCl, pH 7.5, 50 mM NaCl, 5 mM EDTA, 5 mM DTT, 1 mM PMSF, 5% glycerol, 1% DMSO, was used. The indicated DNMT1, DNMT3a and DNMT3b were added to the appropriate substrate solution and gently mixed. Amounts of CA ranging from 5.08E-09 to 0.0001 M in DMSO were added to the reaction mixture by using Acoustic Technology (Echo® 550, LabCyte Inc. Sunnyvale, CA). The mixtures were first incubated for 15 min, then ^3H-SAM was added to the reaction mixture to initiate the reaction, and the mixture was incubated for 60 min at 30° C. Following incubation, the reaction mixture was finally transferred to filter-paper for detection of radioactivity counts.

HepG-2 cells = experiment: RT-qPCR of genes of lipid metabolism and calcium signaling; format: cell-based, human; conditions: concentration and time dependent
Description: After culturing HepG-2 cells in DMEM medium with HG for 72 hours followed by treating with 20 μM CA for 0, 3, 6, 12, and 24 hours, genomic DNA from 5×10^7 cells were extracted using QIAamp® DNA Mini Kit (QIAGEN, Hilden, Germany). Each sample, 6 μg, was sent to CD Genomics Co., Ltd (New York, USA) for analysis of WGBS. Total RNA was isolated using the Promega SV total RNA isolation system (Madison, WI, USA) with DNase treatment. Each sample, 2 μg, were sent to CD Genomics Co., Ltd (New York, USA) for analysis of RNA sequencing. The same samples, 2 μg, was used for the first-strand cDNA synthesis as recommended by the manufacturer (Invitrogen, Carlsbad, CA). RT-qPCR was performed using SYBR Green as the indicator on ABI 7500 Fast Real-Time PCR System (Applied Biosystems, Foster City, CA). Amplifications of j-actin or GAPDH were used as internal controls. Relative messenger RNA (mRNA) expression was quantified with the comparative cycle threshold (Ct) method using a sutiable primer set and was expressed as 2-ΔΔCt as described previously.

Chain of recombinant DNMT3a (Q9Y6K1 whole entry, looked up): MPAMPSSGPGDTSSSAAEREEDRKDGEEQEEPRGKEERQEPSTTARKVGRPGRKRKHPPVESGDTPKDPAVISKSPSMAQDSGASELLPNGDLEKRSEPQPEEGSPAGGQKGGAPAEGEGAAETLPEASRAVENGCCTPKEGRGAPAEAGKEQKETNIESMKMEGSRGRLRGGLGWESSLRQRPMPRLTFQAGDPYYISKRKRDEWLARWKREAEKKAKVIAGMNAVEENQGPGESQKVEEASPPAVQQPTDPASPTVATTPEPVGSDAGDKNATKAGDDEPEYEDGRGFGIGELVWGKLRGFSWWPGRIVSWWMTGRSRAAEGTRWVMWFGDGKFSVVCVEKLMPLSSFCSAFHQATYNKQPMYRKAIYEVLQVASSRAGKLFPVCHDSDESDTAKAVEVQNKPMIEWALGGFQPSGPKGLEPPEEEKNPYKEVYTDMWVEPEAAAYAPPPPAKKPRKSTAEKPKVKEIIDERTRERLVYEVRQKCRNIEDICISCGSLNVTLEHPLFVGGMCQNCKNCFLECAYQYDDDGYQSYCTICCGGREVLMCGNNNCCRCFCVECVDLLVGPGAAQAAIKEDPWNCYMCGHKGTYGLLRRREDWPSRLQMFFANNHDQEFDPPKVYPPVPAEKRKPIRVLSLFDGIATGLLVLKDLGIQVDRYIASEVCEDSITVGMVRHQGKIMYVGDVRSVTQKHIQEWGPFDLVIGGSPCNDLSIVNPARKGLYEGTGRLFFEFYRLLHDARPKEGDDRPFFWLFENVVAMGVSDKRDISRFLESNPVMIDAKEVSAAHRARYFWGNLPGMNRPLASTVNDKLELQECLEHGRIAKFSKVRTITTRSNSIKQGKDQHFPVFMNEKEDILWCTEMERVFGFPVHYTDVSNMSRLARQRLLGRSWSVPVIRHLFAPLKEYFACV

CC(CCC[C@@H](C)[C@H]1CC[C@H]2[C@@H]3CC=C4C[C@@H](O)CC[C@]4(C)[C@H]3CC[C@]12C)C(=O)O (stereo partly drawn) [CA, 3β-hydroxy-5-cholestenoic acid]
IC50 (recombinant DNMT3a): 8.41 µM
levels of mRNA encoding FAS (HepG-2 cells; 0-20 μM CA 6 hours): decreased
levels of mRNA encoding HMGR (HepG-2 cells; 0-20 μM CA 6 hours): decreased
levels of mRNA encoding PCSK9 (HepG-2 cells; 0-20 μM CA 6 hours): decreased
expression of CACNA1D (HepG-2 cells): up-regulated
expression of CACNA1H (HepG-2 cells): up-regulated
expression of CAMK2B (HepG-2 cells): up-regulated
